According to US20040034222A1, “2,4 diamino-1,3,5-triazines, processes for their preparation and their use as herbicides and plant growth regulators” (priority 1999, published 2004):

How the values were obtained:
Format in all cases: in vivo
[1] = test system: harmful plants which are typical for rice crops, for example Cyperus iria and Echinochloa crus-galli; experiment: Action on harmful plants in rice (paddy rice conditions); settings: applied into the dammed water, different dosages, scored about three weeks after application
Excerpt: Transplanted and sown rice and also typical rice weeds (gramineous and broad-leaved) are cultivated in closed plastic pots in a greenhouse to the three-leaf stage (Echinochloa crus-galli 1.5-leaf) under paddy rice conditions (dammed height of water: 2-3 cm). This is followed by treatment with the novel compounds. For this purpose, the formulated active compounds are suspended, dissolved or emulsified in water and applied by pouring them into the dammed water around the test plants in different dosages. After this treatment, the test plants are set up in a greenhouse under optimum growth conditions and are maintained in this way throughout the test period.
About three weeks after application, evaluation is made by visual scoring of the damage to the plants by comparison with untreated controls.

[2] = test system: Stellaria media, Lolium multiflorum, Amaranthus retroflexus, Sinapis arvensis, Avena fatua and Setaria viridis; experiment: Pre-emergence effect on weeds (greenhouse pot test); settings: application rate of 1 kg and less of active substance per hectare; scored after 3 to 4 weeks by comparison with untreated controls
Excerpt: Seeds or rhizome pieces of monocotyledonous and dicotyledonous weed plants are placed in sandy loam soil in plastic pots and covered with soil. The compounds according to the invention which are formulated in the form of wettable powders or emulsion concentrates were then applied to the surface of the soil cover in the form of aqueous suspensions or emulsions at an application rate of 600 to 800 l of water/ha (converted), in various dosages.
After the treatment, the pots are placed in a greenhouse and kept under good growth conditions for the weeds. After the test plants had emerged, the damage to the plants or the negative effect on the emergence was scored visually after a test period of 3 to 4 weeks by comparison with untreated controls. As shown by the test results, compounds according to the invention have good herbicidal pre-emergence activity against a broad spectrum of weed grasses and broad-leafed weeds.

[3] = test system: Stellaria media, Lolium multiflorum, Amaranthus retroflexus, Sinapis arvensis, Avena fatua und Setaria viridis; experiment: Post-emergence effect on weeds (greenhouse pot test); settings: application rate of 1 kg and less of active substance per hectare; treated at three-leaf stage; scored after about 3 to 4 weeks by comparison with untreated controls
Description: Seeds or rhizome pieces of monocotyledonous and dicotyledonous weeds were placed in sandy loam soil in plastic pots, covered with soil and grown in a greenhouse under good growth conditions. Three weeks after sowing, the test plants were treated at the three-leaf stage. The compounds according to the invention which were formulated as wettable powders or emulsion concentrates were sprayed, at various dosages, onto the, green parts of the plants at an application rate of 600 to 800 l of water/ha (converted). After the test plants had remained in the greenhouse for about 3 to 4 weeks under optimum growth conditions, the effect of the preparations was scored visually by comparison with untreated controls. The agents according to the invention also have good herbicidal activity post-emergence against a broad spectrum of economically important weed grasses and broad-leafed weeds.

Cc1cccc(OCC(Nc2nc(N)nc(C(F)(F)C(F)F)n2)C2CCCC2)c1 (racemic) [Example 110, 2-Amino-4-(1,1,2,2-tetrafluoroethyl)6-{N-[1-cyclopentyl-2-(3-methylphenoxy)ethyl]amino}-1,3,5-triazine]
very good herbicidal activity: herbicidal activity against harmful plants typical for rice crops (visual scoring of damage) [1] | herbicidal activity pre-emergence (damage to the plants or negative effect on emergence, scored visually) [2] | herbicidal activity post-emergence (scored visually) [3]

CC(C)(F)c1nc(N)nc(NC(COc2ccccc2)C2CCC2)n1 (racemic) [Example 178, 2-Amino4-(1-fluoro-1-methylethyl)-6-[N-(1-cyclobutyl-2-phenoxyethyl)-amino]-1,3,5-triazine]
very good herbicidal activity: herbicidal activity against harmful plants typical for rice crops (visual scoring of damage) [1] | herbicidal activity pre-emergence (damage to the plants or negative effect on emergence, scored visually) [2] | herbicidal activity post-emergence (scored visually) [3]
